{"source": "paper PMC7554048", "about": "“FBI-1 enhanced the resistance of triple-negative breast cancer cells to chemotherapeutic agents via the miR-30c/PXR axis” (Cell Death & Disease, 2020)", "assay": "Olaparib sustained in cultured TNBC cells, LC-MS/MS (half-life)", "format": "in vitro ADME, human", "conditions": "TNBC cells (PDC No. 3 and 9) overexpressing FBI-1", "procedure": "TNBC cells transfected with plasmids were used for the pharmacokinetic experiments to examine the amount of olaparib sustained in the cells. For the cell-based experiments, cells were treated with 1 μmol/L concentration of olaparib for 12 h[33]. Then, cells were harvested at indicated time-points. For the animal experiments, TNBC cells were injected into the subcutaneous position to form subcutaneous tumor tissues. After 2–3 weeks’ growth, when the tumor volumes reached 1500–2000 mm^3, the solution of olaparib was injected into the subcutaneous tumors. Then, the tumor tissues were harvested at indicated times[34],[35]. The olaparib in cells or tumor tissues was extracted by acetonitrile (ACN), and the amount of olaparib sustained in cells or tumor tissues at each time point was determined by liquid chromatography–mass spectrometry/mass spectrometry (LC-MS/MS), following the methods established by Krens et al.[36]. The sustaining rates of olaparib were calculated as (the amount of olaparib at each time)/(the amount of olaparib at 0-time) × 100%. The sustaining curves or the half-time life (t1/2) of olaparib was obtained by the sustained rates of olaparib.", "data": [{"smiles": "CC(=O)N1CCN(c2ccc(OCC3COC(Cn4ccnc4)(c4ccc(Cl)cc4Cl)O3)cc2)CC1", "note": "(stereo not shown) [ketoconazole]", "values": [{"measurement": "effect of ketoconazole on FBI-1-accelerated elimination or clearance of olaparib", "value": "almost blocked the effect of FBI-1 on olaparib in TNBC cells"}]}]}
